Test [1] concerns the target mutant HIV PR (Mutant 10) (Human immunodeficiency virus type 1 group M subtype B, UniProt P04585). Nature of the test: HIV PR inhibition assay, Mutant 10. The test is classed as biochemical. The note with it: read-out: Ki Mutant 10; recombinant mutant HIV PR, fluorogenic substrate, pH 6.5. On the procedure: (§1) Expression and purification of WT and mutant HIV PR. Recombinant wild type and mutant HIV PRs were expressed using pET21 vector (Novagen) in E. coli cells, and purified and refolded as described previously (Gulnik et al, 1995). The cells were resuspended in 50 mM tris-HCl buffer, pH 8.0, 25 mM NaCl, 0.2% β-mercaptoethanol (buffer A), sonicated and centrifuged. Inclusion bodies were washed first with buffer A, then with buffer A containing respectively 0.1% Triton X-100, 1 M NaCl, 1 M urea, and finally with buffer A alone. Purified inclusion bodies were solubilized by addition of buffer A containing 8 M urea at room temperature. The solution was clarified by centrifugation and loaded onto 2.6×9.5 cm Q-Sepharose column. Flow-through fractions were collected and dialyzed against 3 changes of refolding buffer, which consists of 25 mM Na-phosphate, pH 7.0, 25 mM NaCl, 0.2% β-mercaptoethanol and 10% glycerol, aliquoted and stored at −80° C.
(§2) Inhibition constants were determined using the fluorogenic substrate ArgGlu(EDANS)[…]DABCYL)Arg (Amichem, USA). HIV Protease was preincubated for 0.5-1 min at ambient temperature on a 96 well plate with different concentrations of inhibitor in 0.05 M sodium phosphate buffer, pH 6.5, containing 20 mM NaCl, 2 mM DTT and 0.01% Tween-20. The reaction was initiated by the addition of substrate. Final enzyme concentration was 2-5 nM for WT and 2-30 nM for mutants. Substrate concentration was 20 uM and DMSO concentration 2%. The increase in fluorescence intensity at the emission maximum of 520 nm (excitation wavelength 340 nm, cut-off filter 495 nm) was monitored as a function of time using a Spectramax Gemini fluorescence plate reader (Molecular Devices, CA USA). The initial rate of hydrolysis was calculated by first-degree polynomial fit using SoftMAX operating software. Data were fitted to the Michaelis-Menten equation for competitive inhibitors. For tight-binding inhibitors the data were fitted by nonlinear regression analysis to the equation V=V0/2Et({[Ki(1+S/Km)+It−Et]^2+4Ki(1+S/Km)Et}^1/2−[Ki(1+S/Km)+It−Et]) (Williams and Morrison, 1979) with the program GraFit, version 5 (Erithacus Software Limited, UK), where V and V0 are initial velocities with and without inhibitor, Km is the Michaelis-Menten constant and S, Et and It are the concentrations of substrate, active enzyme and inhibitor respectively.

Test [2] has as its target mutant HIV PR (Mutant 8) (Human immunodeficiency virus type 1 group M subtype B, UniProt P04585). Description: HIV PR inhibition assay, Mutant 8. The test is classed as biochemical. The note with it: read-out: Ki Mutant 8; recombinant mutant HIV PR, fluorogenic substrate, pH 6.5. On the procedure:
as §1, §2

For test [3], the system named is HIVmutant8 (14 mutations). Nature of the test: Antiviral assay in MT-4 cells (MTT), mutant 8 virus. To be noted: Human immunodeficiency virus 1, MT4, 120 h, read-out: IC50 Mutant 8. The format is cell-based, HIV. On the procedure:
(§3) MT-4 cells were obtained from the AIDS Research and Reference Reagent Program (ARRRP, Division of AIDS, NIAID, NIH: MT-4 from Dr. D. Richman). Cells were propagated in RPMI 1640 supplemented with 10% fetal bovine serum, 50U of penicillin and 50 μg of streptomycin per ml (Invitrogen, Carlsbad Calif.). The following HIV viruses were used for testing of antiviral potency of compounds: WT=HIVHXB2; recombinant HIVHXB2 virus from drug resistant patient isolates; HIVmutant10 (16 mutations); HIVmutant8 (14 mutations); HIVmutant9 (10 mutations).
(§4) The potency of test compound was determined as previously described (ref 1-3) with minor modifications. MT-4 cells (1.5×10^4/ml) were exposed to 200 50 % tissue culture infective doses (TCID50) of viruses in the presence of various concentrations of test compound in 96 well microtiter plates and incubated at 37° C. for 5 days. 3-(4,5-dimethylthiazol-2-yl)-2,5-diphenytetrazolium bromide (MTT) solution was added to a final concentration of 0.75 mg/ml, and plates were incubated 1 hour. After incubation cells were dissolved in isopropanol/Triton-X 100/HCl (1000:50:25) solution. Absorbance was monitored in a microplate reader (Spectramax, Molecular Devices) at 540 nm and 690 nm. Cytotoxicity of compounds was tested in a similar assay in the absence of virus.

The target of test [4] is T1, wild type HIV PR (Human immunodeficiency virus type 1 group M subtype B, UniProt P04585).
T1 construct: Recombinant wild type and mutant HIV PRs were expressed using pET21 vector (Novagen) in E. coli cells; made in house
Nature of the test: HIV PR inhibition assay, wild type. The format is biochemical. On the procedure: as §1, §2

Test [5] concerns the target mutant HIV PR (Mutant 9) (Human immunodeficiency virus type 1 group M subtype B, UniProt P04585). Description: HIV PR inhibition assay, Mutant 9. The test is classed as biochemical. To be noted: read-out: Ki Mutant 9; recombinant mutant HIV PR, fluorogenic substrate, pH 6.5. On the procedure:
as §1, §2

The test system of test [6] is HIVmutant10 (16 mutations). Nature of the test: Antiviral assay in MT-4 cells (MTT), mutant 10 virus. The format is cell-based, HIV. The note with it: Human immunodeficiency virus 1, MT4, 120 h, read-out: IC50 Mutant 10. On the procedure: as §3, §4
Test [7] relates to HIVmutant9 (10 mutations). Nature of the test: Antiviral assay in MT-4 cells (MTT), mutant 9 virus. The note with it: Human immunodeficiency virus 1, MT4, 120 h, read-out: IC50 Mutant 9. The test is classed as cell-based, HIV. On the procedure:
as §3, §4

Test [8] relates to WT=HIVHXB2. Description: Antiviral assay in MT-4 cells (MTT), WT virus. To be noted: Human immunodeficiency virus 1, MT4, 120 h, HIVHXB2, 5 days. The format is cell-based, HIV. On the procedure: as §3, §4

The term Ki denotes the dissociation constant of the complex between target and ligand, obtained from inhibition or displacement. The term IC50 denotes the midpoint of a concentration-inhibition curve.

As for `C=CCN(C=C1C(=O)Nc2ccc(S(=O)(=O)N(CC(C)C)CC(O)C(Cc3ccccc3)NC(=O)OC3COC4OCCC34)cc21)C1CCCC1` (centres unmarked) [Compound 116], the Ki in test [1] is less than 1 nM; in test [2] it was less than 0.3 nM; in test [4] it was less than 0.1 nM; in test [5], less than 0.1 nM. In addition, the IC50 amounted to 50 nM in test [3], 150 nM in test [6], 20 nM in test [7] and 15 nM in test [8].
Turning to `CCc1cccc(NC=C2C(=O)Nc3ccc(S(=O)(=O)N(CC(C)C)CC(O)C(Cc4ccccc4)NC(=O)OC4COC5OCCC45)cc32)n1` (centres unmarked) [Compound 112], the Ki in test [1] is 6.4 nM; in test [2], less than 0.3 nM; in test [4], less than 0.1 nM; in test [5] it was 0.17 nM. Further, the half-inhibitory concentration (IC50) in test [3] came out at 50 nM; in test [6] it was 200 nM; in test [7], 30 nM; in test [8] it was 7 nM.
On to `CCOC(=O)CN(C=C1C(=O)Nc2ccc(S(=O)(=O)N(CC(C)C)CC(O)C(Cc3ccccc3)NC(=O)OC3COC4OCCC34)cc21)Cc1ccccc1` (centres unmarked) [Compound 138], for which the Ki in test [1] is 1.9 nM; in test [2], less than 0.3 nM; in test [4], less than 0.1 nM; in test [5] it was 0.11 nM. Besides, the IC50 in test [6] worked out at 16 nM; in test [7] it was 15 nM; in test [8] it was 31 nM.
In the case of `CCCN(C=C1C(=O)Nc2ccc(S(=O)(=O)N(CC(C)C)CC(O)C(Cc3ccccc3)NC(=O)OC3COC4OCCC34)cc21)CCC` (centres unmarked) [Compound 32, {1-Benzyl-3-[(3-dipropylaminomethylene-2-oxo-2,3-dihydro-1H-indole-5-sulfonyl)-isobutyl-amino]-2-hydroxy-propyl}-carbamic acid hexahydro-furo[2,3-b]furan-3-yl ester], the Ki in test [1] is less than 1 nM; in test [2], less than 0.3 nM; in test [4], less than 0.1 nM; in test [5], less than 0.1 nM. The IC50 was determined as 24 nM in test [3], 58 nM in test [6], 12 nM in test [7] and 10 nM in test [8].
As to `CC(C)CN(C=C1C(=O)Nc2ccc(S(=O)(=O)N(CC(C)C)CC(O)C(Cc3ccccc3)NC(=O)OC3COC4OCCC34)cc21)CC(C)C` (centres unmarked) [Compound 113], the Ki in test [1] was 2.9 nM; in test [2], less than 0.3 nM; in test [4] it was less than 0.1 nM; in test [5], 0.21 nM. Moreover, the half-maximal inhibitory concentration (IC50) in test [3] was 34 nM; in test [6], 90 nM; in test [7], 23 nM; in test [8], 8 nM.
Consider `CC(C)CN(CC(O)C(Cc1ccccc1)NC(=O)OC1COC2OCCC12)S(=O)(=O)c1ccc2c(c1)C(=CNC1CCCCC1)C(=O)N2` (centres unmarked) [Compound 107], for which the Ki was 1.2 nM in test [1], less than 0.3 nM in test [2], less than 0.1 nM in test [4] and 0.21 nM in test [5]. Moreover, the half-inhibitory concentration (IC50) is 39 nM in test [3], 110 nM in test [6], 28 nM in test [7] and 13 nM in test [8].
Consider `CCCN(C=C1C(=O)Nc2ccc(S(=O)(=O)N(CC(C)C)CC(O)C(Cc3ccccc3)NC(=O)OC3COC4OCCC34)cc21)CC` (centres unmarked) [Compound 106], for which the inhibition constant (Ki) in test [1] is less than 1 nM; in test [2], less than 0.3 nM; in test [4], less than 0.1 nM; in test [5], less than 0.1 nM. Further, the IC50 in test [3] was determined as 30 nM; in test [6], 60 nM; in test [7], 20 nM; in test [8], 21 nM.
For `CC(C)CNC=C1C(=O)Nc2ccc(S(=O)(=O)N(CC(C)C)CC(O)C(Cc3ccccc3)NC(=O)OC3COC4OCCC34)cc21` (centres unmarked) [Compound 60, (1-Benzyl-2-hydroxy-3-{isobutyl-[3-(isobutylamino-methylene)-2-oxo-2,3-dihydro-1H-indole-5-sulfonyl]-amino}-propyl)-carbamic acid hexahydro-furo[2,3-b]furan-3-yl ester], the Ki in test [1] was less than 1 nM; in test [2], less than 0.3 nM; in test [4], less than 0.1 nM; in test [5], 0.15 nM. For the same molecule, the IC50 in test [3] was 16 nM; in test [6], 33 nM; in test [7] it was 9.5 nM; in test [8] it was 7.5 nM.
Regarding `CCOC(=O)C(NC=C1C(=O)Nc2ccc(S(=O)(=O)N(CC(C)C)CC(O)C(Cc3ccccc3)NC(=O)OC3COC4OCCC34)cc21)C(C)C` (centres unmarked) [Compound 133], the Ki in test [1] was 3.1 nM; in test [2] it was less than 0.3 nM; in test [4], 0.14 nM; in test [5], 0.4 nM. Besides, the IC50 was determined as 19 nM in test [3], 27 nM in test [6], 16 nM in test [7] and 17 nM in test [8].
Take `CC(C)CN(CC(O)C(Cc1ccccc1)NC(=O)OC1COC2OCCC12)S(=O)(=O)c1ccc2c(c1)C(=CNCc1ccc3ccccc3n1)C(=O)N2` (centres unmarked) [Compound 130]: the inhibition constant Ki was less than 1 nM in test [1], less than 0.3 nM in test [2], 0.1 nM in test [4] and less than 0.1 nM in test [5]. In addition, the values for the half-inhibitory concentration (IC50) in test [6], in test [7] and in test [8] were 27 nM, 23 nM and 32 nM, respectively.
`CC(NCC(F)(F)F)=C1C(=O)Nc2ccc(S(=O)(=O)N(CC(C)C)CC(O)C(Cc3ccccc3)NC(=O)OC3COC4OCCC34)cc21` (centres unmarked) [Compound 45, [1-Benzyl-2-hydroxy-3-(isobutyl-{2-oxo-3-[1-(2,2,2-trifluoro-ethylamino)-ethylidene]-2,3-dihydro-1H-indole-5-sulfonyl}-amino)-propyl]-carbamic acid hexahydro-furo[2,3-b]furan-3-yl ester]: the inhibition constant (Ki) in test [1] is 3.1 nM; in test [2], less than 0.3 nM; in test [4] it was less than 0.1 nM; in test [5] it was less than 0.1 nM. For the same molecule, the IC50 in test [3] is 26 nM; in test [6], 52 nM; in test [8] it was 13 nM.
As for `CC(C)CCNC=C1C(=O)Nc2ccc(S(=O)(=O)N(CC(C)C)CC(O)C(Cc3ccccc3)NC(=O)OC3COC4OCCC34)cc21` (centres unmarked) [Compound 66, [1-Benzyl-2-hydroxy-3-(isobutyl-{3-[(3-methyl-butylamino)-methylene]-2-oxo-2,3-dihydro-1H-indole-5-sulfonyl}-amino)-propyl]-carbamic acid hexahydro-furo[2,3-b]furan-3-yl ester], the Ki in test [1] is less than 1 nM; in test [2], less than 0.3 nM; in test [4], less than 0.1 nM; in test [5], less than 0.1 nM. For the same molecule, the figures for the half-maximal inhibitory concentration (IC50) in test [3], in test [6] and in test [8] were 26 nM, 39 nM and 12 nM, respectively.

The values are drawn from patent publication US7807845B2, “Resistance-repellent retroviral protease inhibitors” (priority 2004, dated 2010).
